# Measured values from ChEMBL document CHEMBL5356935, “Discovery of rigid biphenyl Plasmodium falciparum DHFR inhibitors using a fragment linking strategy” (RSC Med Chem, 2023).
# The source made the active and inactive calls. The rule behind the calls is not given here.
# Tests used:
# Plasmodium falciparum [1] = test: Inhibition of Plasmodium falciparum DHFR N51I/C59R/S108N/I164L quadruple mutant using DHF as substrate at 500 uM in presence of NADPH by UV-Vis spectrometry analysis relative to control
# [2] = target: Bifunctional dihydrofolate reductase-thymidylate synthase (Plasmodium falciparum K1) (UniProt P13922); test: Inhibition of wild type Plasmodium falciparum DHFR using DHF as substrate at 500 uM in presence of NADPH by UV-Vis spectrometry analysis relative to control
# Sequence of Bifunctional dihydrofolate reductase-thymidylate synthase (Plasmodium falciparum K1) (P13922 whole entry, looked up): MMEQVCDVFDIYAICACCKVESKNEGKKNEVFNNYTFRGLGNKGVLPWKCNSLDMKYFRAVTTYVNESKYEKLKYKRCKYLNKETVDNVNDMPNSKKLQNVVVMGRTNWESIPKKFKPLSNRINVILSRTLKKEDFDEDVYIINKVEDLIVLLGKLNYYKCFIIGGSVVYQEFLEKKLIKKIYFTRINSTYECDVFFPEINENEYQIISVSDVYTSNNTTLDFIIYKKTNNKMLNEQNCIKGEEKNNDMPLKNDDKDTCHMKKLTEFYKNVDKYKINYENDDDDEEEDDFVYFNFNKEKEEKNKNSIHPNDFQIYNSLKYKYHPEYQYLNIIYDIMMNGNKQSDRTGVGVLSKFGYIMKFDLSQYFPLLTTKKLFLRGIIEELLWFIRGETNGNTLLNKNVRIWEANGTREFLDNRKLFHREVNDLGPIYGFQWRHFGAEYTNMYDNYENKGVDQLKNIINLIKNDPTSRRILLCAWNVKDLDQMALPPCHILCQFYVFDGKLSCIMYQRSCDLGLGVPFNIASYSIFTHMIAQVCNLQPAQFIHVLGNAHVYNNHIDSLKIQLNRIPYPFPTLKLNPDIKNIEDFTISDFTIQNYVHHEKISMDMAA
# [3] = target: Bifunctional dihydrofolate reductase-thymidylate synthase (Plasmodium falciparum K1) (UniProt P13922); test: Binding affinity to Plasmodium falciparum DHFR assessed as binding constant (koff) by surface plasmon resonance analysis
# [4] = target: Bifunctional dihydrofolate reductase-thymidylate synthase (Plasmodium falciparum K1) (UniProt P13922); test: Binding affinity to Plasmodium falciparum DHFR assessed as binding constant (kon) by surface plasmon resonance analysis
# [5] = target: T1, Dihydrofolate reductase (Homo sapiens) (UniProt P00374); test: Inhibition of human DHFR at 500 uM by UV-Vis spectrometry analysis
# T1 sequence (whole entry): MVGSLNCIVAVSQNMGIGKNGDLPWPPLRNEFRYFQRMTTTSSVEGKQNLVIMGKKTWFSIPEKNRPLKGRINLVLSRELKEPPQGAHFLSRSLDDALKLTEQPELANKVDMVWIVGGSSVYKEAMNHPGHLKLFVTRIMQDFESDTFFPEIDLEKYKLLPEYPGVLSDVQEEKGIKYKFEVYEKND
# [6] = target: Bifunctional dihydrofolate reductase-thymidylate synthase (Plasmodium falciparum K1) (UniProt P13922); test: Inhibition of wild type Plasmodium falciparum DHFR using DHF as substrate at 500 uM in presence of NADPH by UV-Vis spectrometry analysis
# Plasmodium falciparum [7] = test: Binding affinity to Plasmodium falciparum DHFR N51I/C59R/S108N/I164L quadruple mutant assessed as change in melting temperature in presence of NADPH by […] analysis
# Plasmodium falciparum [8] = test: Inhibition of Plasmodium falciparum DHFR N51I/C59R/S108N/I164L quadruple mutant assessed as fold change in inhibition in presence of 2,4-diamino-6-ethylpyrimidin-5-ol
# Plasmodium falciparum [9] = test: Inhibition of Plasmodium falciparum DHFR N51I/C59R/S108N/I164L quadruple mutant using DHF as substrate at 500 uM in presence of NADPH by UV-Vis spectrometry analysis
# Plasmodium falciparum [10] = test: Antiplasmodial activity against PYR-sensitive Plasmodium falciparum TM4/8.2 encoding WT DHFR infected in human erythrocytes assessed as inhibition of parasite growth by [3H]-hypoxanthine incorporation assay; format: functional, organism-based; conditions: TM4/8.2, Erythrocyte
# [11] = Inhibition of Plasmodium falciparum DHFR N51I/C59R/S108N/I164L quadruple mutant using DHF as substrate assessed as inhibition constant in presence of NADPH by UV-Vis spectrometry analysis
# [12] = Cytotoxicity against African green monkey Vero cells assessed as cell growth inhibition incubated for 72 hrs by sulforhodamine B assay; format: toxicity, cell-based, Chlorocebus sabaeus
# [13] = Kinetic solubility of the compound at pH 2.0 at 200 uM incubated for 2 hrs under shaking condition by HPLC analysis; format: physicochemical; conditions: buffer, read-out: Kinetic_solubility
# Plasmodium falciparum [14] = test: Antiplasmodial activity against PYR-resistant Plasmodium falciparum V1/S encoding QM DHFR infected in human erythrocytes assessed as inhibition of parasite growth by [3H]-hypoxanthine incorporation assay; format: functional, organism-based; conditions: Erythrocyte
# [15] = Kinetic solubility of the compound at pH 4.5 at 200 uM incubated for 2 hrs under shaking condition by HPLC analysis; format: physicochemical; conditions: buffer, read-out: Kinetic_solubility
# [16] = Metabolic stability in human liver microsomes assessed as intrinsic clearance measured upto 60 mins in presence of NADPH by LC-MS/MS analysis; format: ADME, Microsome; conditions: read-out: CLH
# Dihydrofolate reductase = target: T2, Dihydrofolate reductase (Homo sapiens, UniProt P00374); test: Inhibition of human DHFR using DHF as substrate assessed as inhibition constant in presence of NADPH by UV-Vis spectrometry analysis
# T2 sequence (P00374 whole entry): T1 sequence (whole entry)
# [17] = Distribution coefficient, log D of compound in n-octanol and saturated PBS at pH 7.4 at 100 uM incubated for 2 hrs under shaking condition by HPLC analysis; format: physicochemical
# [18] = Kinetic solubility of the compound at pH 7.4 at 200 uM incubated for 2 hrs under shaking condition by HPLC analysis; format: physicochemical; conditions: buffer, read-out: Kinetic_solubility
# [19] = Kinetic solubility of the compound at pH 6.5 at 200 uM incubated for 2 hrs under shaking condition by HPLC analysis; format: physicochemical; conditions: buffer, read-out: Kinetic_solubility
# [20] = target: Bifunctional dihydrofolate reductase-thymidylate synthase (Plasmodium falciparum K1, UniProt P13922); test: Inhibition of wild type Plasmodium falciparum DHFR using DHF as substrate assessed as inhibition constant in presence of NADPH by UV-Vis spectrometry analysis
# Sequence of Bifunctional dihydrofolate reductase-thymidylate synthase (P13922 whole entry): as the sequence (P13922 whole entry, looked up) above
# [21] = Metabolic stability in rat liver microsomes assessed as intrinsic clearance measured upto 60 mins in presence of NADPH by LC-MS/MS analysis; format: ADME, Microsome; conditions: read-out: CLH
# [22] = target: Bifunctional dihydrofolate reductase-thymidylate synthase (Plasmodium falciparum K1) (UniProt P13922); test: Binding affinity to Plasmodium falciparum DHFR assessed as faster binding and release kinetics by surface plasmon resonance analysis
smiles,measurement,setting,value
O=C(O)c1ccc(-c2ccc(O)cc2)cc1,inhibition,Plasmodium falciparum [1],24.9%
same,inhibition,[2],21.1%
same,K,[3],0.011 s⁻¹
same,K,[4],14.8 M⁻¹ s⁻¹
same,inhibition,[5],inactive
O=C(O)c1cccc(-c2ccncc2)c1,inhibition,[6],inactive
same,ΔTm,Plasmodium falciparum [7],0.8 °C
same,inhibition,Plasmodium falciparum [1],19.5%
same,K,[4],6.41 M⁻¹ s⁻¹
same,inhibition,[5],inactive
O=C(O)c1ccc(-c2cnco2)cc1,fold change (FC),Plasmodium falciparum [8],2.6
same,inhibition,[6],inactive
same,inhibition,Plasmodium falciparum [1],11.3%
same,K,[3],0.013 s⁻¹
same,K,[4],5.26 M⁻¹ s⁻¹
same,inhibition,[5],inactive
Cc1oc(-c2ccccc2)cc1C(=O)O,inhibition,[6],inactive
same,K,[3],0.014 s⁻¹
same,K,[4],6.06 M⁻¹ s⁻¹
same,inhibition,[5],inactive
same,inhibition,Plasmodium falciparum [9],inactive
O=C(O)c1ccnc(-c2ccccc2)c1,inhibition,[6],inactive
same,K,[3],0.01 s⁻¹
same,K,[4],3.55 M⁻¹ s⁻¹
same,inhibition,[5],inactive
same,inhibition,Plasmodium falciparum [9],inactive
CCc1nc(N)nc(N)c1Cc1ccc(-c2ccc(C(=O)O)cc2)cc1.Cl,IC50,Plasmodium falciparum [10],11.2 µM
same,Ki,[11],61.1 nM
same,IC50 at 72 h,[12],> 50 µM
same,"solubility kinetic at 2 h, 200 µM",[13],176 µM
same,IC50,Plasmodium falciparum [14],> 50 µM
same,"solubility kinetic at 2 h, 200 µM",[15],8.8 µM
same,microsomal CLint,[16],< 3 µL/min/mg
same,Ki,Dihydrofolate reductase,214 nM
same,"logD at 2 h, 100 µM",[17],0.332
same,"solubility kinetic at 2 h, 200 µM",[18],11.7 µM
same,"solubility kinetic at 2 h, 200 µM",[19],11.4 µM
same,Ki,[20],1.59 nM
same,microsomal CLint,[21],< 3 µL/min/mg
COc1cc(Cc2cnc(N)nc2N)cc(OC)c1OC [TRIMETHOPRIM],Ki,[11],49.1 nM
COc1ccccc1-c1ccc(C(=O)O)cc1,fold change (FC),Plasmodium falciparum [8],2.7
same,Activity,[22],Active
same,inhibition,Plasmodium falciparum [1],24%
same,inhibition,[2],14.6%
same,inhibition,[5],inactive
O=C(O)c1cccnc1-c1ccccc1,inhibition,[6],inactive
same,Activity,[22],Active
same,inhibition,[5],inactive
same,inhibition,Plasmodium falciparum [9],inactive
CCc1nc(N)nc(N)c1Cc1cccc(-c2ccc(C(=O)O)cc2)c1.Cl.Cl,IC50,Plasmodium falciparum [10],8.55 µM
same,Ki,[11],3.3 nM
same,IC50 at 72 h,[12],> 50 µM
same,"solubility kinetic at 2 h, 200 µM",[13],188 µM
same,IC50,Plasmodium falciparum [14],> 50 µM
same,"solubility kinetic at 2 h, 200 µM",[15],19.2 µM
same,Ki,Dihydrofolate reductase,22 nM
same,"solubility kinetic at 2 h, 200 µM",[18],30.8 µM
same,"solubility kinetic at 2 h, 200 µM",[19],19.2 µM
same,Ki,[20],0.48 nM
CCc1nc(N)nc(N)c1Cc1cccc(-c2cccc(C(=O)OC)c2)c1,IC50,Plasmodium falciparum [10],4.95 µM
same,Ki,[11],0.58 nM
same,IC50 at 72 h,[12],21.7 µM
same,IC50,Plasmodium falciparum [14],40 µM
same,Ki,Dihydrofolate reductase,19.4 nM
same,"logD at 2 h, 100 µM",[17],3.2
same,Ki,[20],0.21 nM
O=C(O)c1ccccc1-c1ccco1,inhibition,Plasmodium falciparum [1],7.7%
same,inhibition,[2],6.5%
same,K,[3],0.012 s⁻¹
same,K,[4],40 M⁻¹ s⁻¹
same,inhibition,[5],inactive
O=C(O)c1ccc(-c2cccnc2)cc1,inhibition,Plasmodium falciparum [1],2.4%
same,inhibition,[2],8.5%
same,K,[3],0.001 s⁻¹
same,K,[4],4.18 M⁻¹ s⁻¹
same,inhibition,[5],inactive
CCc1nc(N)nc(N)c1Cc1cccc(-c2ccc(C(=O)OC)cc2)c1,IC50,Plasmodium falciparum [10],34.1 µM
same,Ki,[11],1.04 nM
same,IC50 at 72 h,[12],> 50 µM
same,IC50,Plasmodium falciparum [14],> 50 µM
same,Ki,Dihydrofolate reductase,16.6 nM
same,"logD at 2 h, 100 µM",[17],3.24
same,Ki,[20],0.25 nM
